Reference: patent publication US10328082B2, “Methods of use and combinations” (Pfizer Inc., priority 2014, dated 2019)

What was measured:
[1] = target: T1, human Androgen Receptor (AR) (Homo sapiens, UniProt P10275); experiment: Androgen Receptor-Mediated Transcriptional Assay; type: cell-based; settings: CV-1 cells transiently transfected with full length human AR and ARE-luciferase, 16-18 hours incubation
T1 construct: transiently transfected in T225 cm^2 flasks with a full length human Androgen Receptor (AR) cDNA; expressed in transfected cells; host or cells: CV-1 cells (ATCC CCL-70), transiently transfected
T1 sequence (P10275 1-920): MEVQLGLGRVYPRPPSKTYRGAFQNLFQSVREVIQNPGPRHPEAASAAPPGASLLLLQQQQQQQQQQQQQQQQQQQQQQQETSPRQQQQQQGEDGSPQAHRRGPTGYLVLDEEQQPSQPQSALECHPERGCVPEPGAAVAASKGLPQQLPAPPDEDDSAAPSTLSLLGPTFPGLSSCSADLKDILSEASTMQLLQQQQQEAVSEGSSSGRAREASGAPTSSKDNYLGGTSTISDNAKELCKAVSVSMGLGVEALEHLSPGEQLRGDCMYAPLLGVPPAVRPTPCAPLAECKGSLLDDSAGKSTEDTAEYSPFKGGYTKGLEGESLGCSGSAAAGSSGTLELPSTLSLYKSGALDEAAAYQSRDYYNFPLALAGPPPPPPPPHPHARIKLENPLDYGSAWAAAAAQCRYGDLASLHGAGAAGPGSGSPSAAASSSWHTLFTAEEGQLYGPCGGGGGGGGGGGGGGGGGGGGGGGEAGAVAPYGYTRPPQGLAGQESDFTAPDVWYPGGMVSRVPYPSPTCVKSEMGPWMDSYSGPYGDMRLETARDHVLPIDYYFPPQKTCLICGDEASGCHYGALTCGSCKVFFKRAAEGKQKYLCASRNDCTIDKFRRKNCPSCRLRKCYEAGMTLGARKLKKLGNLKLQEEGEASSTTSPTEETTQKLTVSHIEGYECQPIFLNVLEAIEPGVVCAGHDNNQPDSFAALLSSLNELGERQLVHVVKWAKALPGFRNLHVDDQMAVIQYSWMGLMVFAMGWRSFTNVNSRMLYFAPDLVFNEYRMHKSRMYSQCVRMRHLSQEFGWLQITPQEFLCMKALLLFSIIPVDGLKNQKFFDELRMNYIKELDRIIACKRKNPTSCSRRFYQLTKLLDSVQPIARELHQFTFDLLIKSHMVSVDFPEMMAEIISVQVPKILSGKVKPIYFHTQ
Method: Androgen Receptor-Mediated Transcriptional Assay Summary
CV-1 cells (American Tissue Culture Collection cat# CCL-70) were expanded in Growth Media and transiently transfected in T225 cm^2 flasks with a full length human Androgen Receptor (AR) cDNA in the pcDNA3 expression vector and a human Androgen Response Element (ARE)-luciferase cDNA in the pGL3 vector (both from Invitrogen). DNA (μg) and Lipofectamine (μl) at a ratio of 1:3 were incubated with the cells in a total volume of 55 mL Basal Media for 4 hours. Cells were harvested by trypsinization and frozen back (−150° C. cryomed) at a concentration of 4.3 million cells/mL.
On the day of the assay, frozen cells were thawed and re-suspended in Re-suspension Media and plated at 40,000 cells/well (in 100 μL volume) in 96 well white plates and were incubated for at least 4 h at 37° C., 5% CO2. After incubation, cells were treated with the compounds to be screened. 10 mM stocks of the compounds were serially diluted 1:10 in 100% DMSO followed by an additional 1:100 dilution in Assay Media. These dilution series were added to the cell plates resulting in a further 1:10 dilution and a final % DMSO of 0.1%. The vehicle control wells also contained this dilution of DMSO and the positive control wells contained […] (DHT) as an AR agonist at final concentration of 0.3 nM in 0.1% DMSO. Cells were incubated for 16-18 hours at 37° C. and 5% CO2. Then the culture media was removed from and the cells were lysed in 20 μL of cell lysis reagent for 5 minutes at room temperature. 50 μL of luciferase reagent was added to each well and luminescence, over 5 seconds, was measured.
EC50 (half maximal effective concentration) was calculated from concentration series plots which generated sigmoidal curves. Xlfit software was used to plot the best fit of the % effect vs concentration and to calculate the EC50.

[2] = DSC profile of the crystalline form; type: physicochemical; settings: demonstrated by the high DSC melting point and DSC profile
Method: DSC measurements were performed with a Discovery DSC (TA instruments) equipped with a refrigerated cooling accessory. Approximately 2-5 mg of solid sample was weighed into a standard/Tzero aluminum pan and non-hermetically sealed. The sample was placed in a cell with continuous dry nitrogen purge (50 mL/min) and heated from 25° C. to 250° C. at 10° C./min heating rate. The cell constant was determined using indium and temperature calibration was performed using indium and tin as standards. The experimental data were analyzed using commercially available software (TA Universal Analysis 2000/Trios software, TA Instruments).
The characterization data disclosed herein confirms the crystalline nature of the 6-[(4R)-4-methyl-1,1-dioxido-1,2,6-thiadiazinan-2-yl]isoquinoline-1-carbonitrile free base Form (1) material and, as such, that it is a useful form for pharmaceutical development. For example, crystalline materials are generally considered to be an advantageous form for drug substance manufacturing because, for example, they are more easily purified, can be prepared with higher yields, have improved filtration and drying characteristics and improved flow and handling characteristics.

| Compound | EC50 ([1]; Compounds 1-22) | also measured |
| --- | --- | --- |
| 6-{(2R,5R)-2-[(1R)-1-hydroxyethyl]-5-methylpyrrolidin-1-yl}isoquinoline-1-carbonitrile [Compound 31] | – | EC50 ([1]; Compounds 23-39): 474 nM |
| 6-[(4S)-4-(3-methylphenyl)-1,1-dioxido-1,2,6-thiadiazinan-2-yl]isoquinoline-1-carbonitrile [Compound 20] | 8 nM | – |
| C[C@H]1CN(C)S(=O)(=O)N1c1ccc2c(C#N)nccc2c1 [Compound 5] | 5 nM | – |
| 6-[(4S)-4-ethyl-1,1-dioxido-1,2,6-thiadiazinan-2-yl]isoquinoline-1-carbonitrile [Compound 21] | 8 nM | – |
| C[C@@H]1CNS(=O)(=O)N(c2ccc3c(C#N)nccc3c2)C1 [6-[(4R)-4-methyl-1,1-dioxido-1,2,6-thiadiazinan-2-yl]isoquinoline-1-carbonitrile] | – | hygroscopic nature [2]: non-hygroscopic; thermal stability [2]: thermal stability |
